Numbers after ± are expanded uncertainties.
Experiment: isobaric coefficient of expansion
Settings: Liquid, DSC with Pressure Shift

CCCCCN [1-pentanamine]
isobaric coefficient of expansion
Settings	278.15 K	288.15 K	298.15 K	308.15 K	318.15 K	328.15 K	338.15 K	348.15 K
5000 kPa	0.00109 ± 4.6e-05 1/K	0.00111 ± 4.7e-05 1/K	0.00112 ± 4.8e-05 1/K	0.00114 ± 4.8e-05 1/K	0.00116 ± 4.9e-05 1/K	0.00118 ± 5e-05 1/K	0.0012 ± 5.1e-05 1/K	0.00123 ± 5.2e-05 1/K
10000 kPa	0.00107 ± 4.5e-05 1/K	0.00108 ± 4.6e-05 1/K	0.00109 ± 4.6e-05 1/K	0.00111 ± 4.7e-05 1/K	0.00112 ± 4.8e-05 1/K	0.00114 ± 4.8e-05 1/K	0.00116 ± 4.9e-05 1/K	0.00118 ± 5e-05 1/K
15000 kPa	0.00105 ± 4.5e-05 1/K	0.00106 ± 4.5e-05 1/K	0.00107 ± 4.5e-05 1/K	0.00108 ± 4.6e-05 1/K	0.00109 ± 4.6e-05 1/K	0.0011 ± 4.7e-05 1/K	0.00112 ± 4.7e-05 1/K	0.00113 ± 4.8e-05 1/K
20000 kPa	0.00102 ± 4.3e-05 1/K	0.00104 ± 4.4e-05 1/K	0.00104 ± 4.4e-05 1/K	0.00106 ± 4.5e-05 1/K	0.00106 ± 4.5e-05 1/K	0.00107 ± 4.5e-05 1/K	0.00108 ± 4.6e-05 1/K	0.0011 ± 4.6e-05 1/K
25000 kPa	0.00101 ± 4.3e-05 1/K	0.00102 ± 4.3e-05 1/K	0.00102 ± 4.3e-05 1/K	0.00103 ± 4.4e-05 1/K	0.00104 ± 4.4e-05 1/K	0.00104 ± 4.4e-05 1/K	0.00105 ± 4.5e-05 1/K	0.00106 ± 4.5e-05 1/K
30000 kPa	0.000988 ± 4.2e-05 1/K	0.000994 ± 4.2e-05 1/K	0.001 ± 4.2e-05 1/K	0.00101 ± 4.3e-05 1/K	0.00101 ± 4.3e-05 1/K	0.00102 ± 4.3e-05 1/K	0.00102 ± 4.3e-05 1/K	0.00103 ± 4.4e-05 1/K
35000 kPa	0.000969 ± 4.1e-05 1/K	0.000973 ± 4.1e-05 1/K	0.000981 ± 4.2e-05 1/K	0.000988 ± 4.2e-05 1/K	0.000989 ± 4.2e-05 1/K	0.000989 ± 4.2e-05 1/K	0.000993 ± 4.2e-05 1/K	0.000999 ± 4.2e-05 1/K
40000 kPa	0.000954 ± 4e-05 1/K	0.000958 ± 4.1e-05 1/K	0.000966 ± 4.1e-05 1/K	0.000968 ± 4.1e-05 1/K	0.000967 ± 4.1e-05 1/K	0.000971 ± 4.1e-05 1/K	0.000972 ± 4.1e-05 1/K	0.000972 ± 4.1e-05 1/K
45000 kPa	0.000938 ± 4e-05 1/K	0.000937 ± 4e-05 1/K	0.000944 ± 4e-05 1/K	0.000949 ± 4e-05 1/K	0.000947 ± 4e-05 1/K	0.000949 ± 4e-05 1/K	0.000951 ± 4e-05 1/K	0.000954 ± 4e-05 1/K
50000 kPa	0.000921 ± 3.9e-05 1/K	0.000925 ± 3.9e-05 1/K	0.000927 ± 3.9e-05 1/K	0.000929 ± 3.9e-05 1/K	0.000928 ± 3.9e-05 1/K	0.000931 ± 4e-05 1/K	0.00093 ± 3.9e-05 1/K	0.00093 ± 3.9e-05 1/K
55000 kPa	0.000895 ± 3.8e-05 1/K	0.0009 ± 3.8e-05 1/K	0.000894 ± 3.8e-05 1/K	0.000898 ± 3.8e-05 1/K	0.000898 ± 3.8e-05 1/K	0.000898 ± 3.8e-05 1/K	0.000899 ± 3.8e-05 1/K	0.000891 ± 3.8e-05 1/K

CCC(O)CC [3-pentanol]
isobaric coefficient of expansion
Settings	278.15 K	288.15 K	298.15 K	308.15 K	318.15 K	328.15 K	338.15 K	348.15 K
5000 kPa	0.000898 ± 3.8e-05 1/K	0.000935 ± 4e-05 1/K	0.000971 ± 4.1e-05 1/K	0.00101 ± 4.3e-05 1/K	0.00106 ± 4.5e-05 1/K	0.00109 ± 4.6e-05 1/K	0.00115 ± 4.9e-05 1/K	0.0012 ± 5.1e-05 1/K
10000 kPa	0.000875 ± 3.7e-05 1/K	0.000916 ± 3.9e-05 1/K	0.000952 ± 4e-05 1/K	0.00099 ± 4.2e-05 1/K	0.00103 ± 4.4e-05 1/K	0.00107 ± 4.5e-05 1/K	0.00113 ± 4.8e-05 1/K	0.00117 ± 5e-05 1/K
15000 kPa	0.000861 ± 3.7e-05 1/K	0.000898 ± 3.8e-05 1/K	0.000935 ± 4e-05 1/K	0.00097 ± 4.1e-05 1/K	0.00101 ± 4.3e-05 1/K	0.00104 ± 4.4e-05 1/K	0.0011 ± 4.7e-05 1/K	0.00113 ± 4.8e-05 1/K
20000 kPa	0.00085 ± 3.6e-05 1/K	0.000882 ± 3.7e-05 1/K	0.000917 ± 3.9e-05 1/K	0.000953 ± 4e-05 1/K	0.000989 ± 4.2e-05 1/K	0.00103 ± 4.4e-05 1/K	0.00107 ± 4.6e-05 1/K	0.00111 ± 4.7e-05 1/K
25000 kPa	0.000826 ± 3.5e-05 1/K	0.000868 ± 3.7e-05 1/K	0.000899 ± 3.8e-05 1/K	0.000934 ± 4e-05 1/K	0.00097 ± 4.1e-05 1/K	0.00101 ± 4.3e-05 1/K	0.00105 ± 4.4e-05 1/K	0.00108 ± 4.6e-05 1/K
30000 kPa	0.000814 ± 3.5e-05 1/K	0.00085 ± 3.6e-05 1/K	0.00088 ± 3.7e-05 1/K	0.000919 ± 3.9e-05 1/K	0.000952 ± 4e-05 1/K	0.000983 ± 4.2e-05 1/K	0.00102 ± 4.3e-05 1/K	0.00106 ± 4.5e-05 1/K
35000 kPa	0.000802 ± 3.4e-05 1/K	0.000837 ± 3.6e-05 1/K	0.000866 ± 3.7e-05 1/K	0.000899 ± 3.8e-05 1/K	0.000932 ± 4e-05 1/K	0.000965 ± 4.1e-05 1/K	0.001 ± 4.2e-05 1/K	0.00103 ± 4.4e-05 1/K
40000 kPa	0.000799 ± 3.4e-05 1/K	0.000823 ± 3.5e-05 1/K	0.000852 ± 3.6e-05 1/K	0.000888 ± 3.8e-05 1/K	0.000914 ± 3.9e-05 1/K	0.000949 ± 4e-05 1/K	0.000976 ± 4.1e-05 1/K	0.00101 ± 4.3e-05 1/K
45000 kPa	0.000766 ± 3.2e-05 1/K	0.000807 ± 3.4e-05 1/K	0.000839 ± 3.6e-05 1/K	0.000869 ± 3.7e-05 1/K	0.000897 ± 3.8e-05 1/K	0.00093 ± 3.9e-05 1/K	0.000953 ± 4e-05 1/K	0.000986 ± 4.2e-05 1/K
50000 kPa	0.000769 ± 3.3e-05 1/K	0.000792 ± 3.4e-05 1/K	0.000822 ± 3.5e-05 1/K	0.000852 ± 3.6e-05 1/K	0.000879 ± 3.7e-05 1/K	0.000907 ± 3.9e-05 1/K	0.000931 ± 3.9e-05 1/K	0.00096 ± 4.1e-05 1/K
55000 kPa	0.000743 ± 3.2e-05 1/K	0.000771 ± 3.3e-05 1/K	0.000806 ± 3.4e-05 1/K	0.000837 ± 3.6e-05 1/K	0.000862 ± 3.7e-05 1/K	0.000887 ± 3.8e-05 1/K	0.00091 ± 3.9e-05 1/K	0.000936 ± 4e-05 1/K

CCCCCCCCCCO [decan-1-ol]
isobaric coefficient of expansion
Settings	298.15 K	308.15 K	318.15 K	328.15 K	338.15 K	348.15 K
5000 kPa	0.000809 ± 3.4e-05 1/K	0.000822 ± 3.5e-05 1/K	0.000837 ± 3.6e-05 1/K	0.00085 ± 3.6e-05 1/K	0.000869 ± 3.7e-05 1/K	0.000895 ± 3.8e-05 1/K
10000 kPa	0.000792 ± 3.4e-05 1/K	0.0008 ± 3.4e-05 1/K	0.000814 ± 3.5e-05 1/K	0.000827 ± 3.5e-05 1/K	0.000843 ± 3.6e-05 1/K	0.000863 ± 3.7e-05 1/K
15000 kPa	0.000776 ± 3.3e-05 1/K	0.000784 ± 3.3e-05 1/K	0.000795 ± 3.4e-05 1/K	0.000803 ± 3.4e-05 1/K	0.000819 ± 3.5e-05 1/K	0.000832 ± 3.5e-05 1/K
20000 kPa	0.000755 ± 3.2e-05 1/K	0.000764 ± 3.2e-05 1/K	0.000775 ± 3.3e-05 1/K	0.000781 ± 3.3e-05 1/K	0.000799 ± 3.4e-05 1/K	0.000812 ± 3.4e-05 1/K
25000 kPa	0.000739 ± 3.1e-05 1/K	0.000748 ± 3.2e-05 1/K	0.000758 ± 3.2e-05 1/K	0.000765 ± 3.2e-05 1/K	0.000779 ± 3.3e-05 1/K	0.000792 ± 3.4e-05 1/K
30000 kPa	0.000725 ± 3.1e-05 1/K	0.00073 ± 3.1e-05 1/K	0.000743 ± 3.2e-05 1/K	0.000748 ± 3.2e-05 1/K	0.00076 ± 3.2e-05 1/K	0.000775 ± 3.3e-05 1/K
35000 kPa	0.000715 ± 3e-05 1/K	0.000719 ± 3e-05 1/K	0.000726 ± 3.1e-05 1/K	0.000732 ± 3.1e-05 1/K	0.000745 ± 3.2e-05 1/K	0.000755 ± 3.2e-05 1/K
40000 kPa	0.000702 ± 3e-05 1/K	0.000706 ± 3e-05 1/K	0.000711 ± 3e-05 1/K	0.000719 ± 3e-05 1/K	0.000729 ± 3.1e-05 1/K	0.000738 ± 3.1e-05 1/K
45000 kPa	0.00069 ± 2.9e-05 1/K	0.00069 ± 2.9e-05 1/K	0.000699 ± 3e-05 1/K	0.000704 ± 3e-05 1/K	0.000713 ± 3e-05 1/K	0.000722 ± 3.1e-05 1/K
50000 kPa	0.000679 ± 2.9e-05 1/K	0.00068 ± 2.9e-05 1/K	0.000688 ± 2.9e-05 1/K	0.000691 ± 2.9e-05 1/K	0.000701 ± 3e-05 1/K	0.000708 ± 3e-05 1/K
55000 kPa	0.000669 ± 2.8e-05 1/K	0.000669 ± 2.8e-05 1/K	0.000676 ± 2.9e-05 1/K	0.000679 ± 2.9e-05 1/K	0.000689 ± 2.9e-05 1/K	0.000697 ± 3e-05 1/K
